Data taken from ChEMBL document CHEMBL2346513, “Synthesis and evaluation of methylsulfonylnitrobenzamides (MSNBAs) as inhibitors of the thyroid hormone receptor-coactivator interaction” (Bioorg Med Chem Lett, 2013).
pEC50, pIC50: −log10 of the molar value.

Experiments:
[1] = molecular target: T1, Thyroid hormone receptor beta (Homo sapiens, UniProt P10828); experiment: Inhibition of TRbeta-LBD (unknown origin) interaction to texas red-labeled SRC2-2 peptide by fluorescence polarization assay
T1 sequence (P10828 whole entry): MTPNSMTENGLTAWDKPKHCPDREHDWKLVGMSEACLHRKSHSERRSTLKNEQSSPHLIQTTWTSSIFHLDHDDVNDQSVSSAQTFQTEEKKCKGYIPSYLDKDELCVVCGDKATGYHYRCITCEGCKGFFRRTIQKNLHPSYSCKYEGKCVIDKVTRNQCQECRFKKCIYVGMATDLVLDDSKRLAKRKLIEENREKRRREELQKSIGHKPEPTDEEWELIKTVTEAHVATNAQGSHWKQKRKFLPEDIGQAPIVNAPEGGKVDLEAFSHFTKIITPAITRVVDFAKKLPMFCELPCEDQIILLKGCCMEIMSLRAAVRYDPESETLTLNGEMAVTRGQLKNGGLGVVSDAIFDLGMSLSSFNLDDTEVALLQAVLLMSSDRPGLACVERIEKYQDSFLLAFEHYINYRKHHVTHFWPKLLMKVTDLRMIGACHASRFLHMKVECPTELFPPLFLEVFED

[2] = molecular target: Thyroid hormone receptor (Homo sapiens) (UniProt P10827+P10828); experiment: Inhibition of thyroid hormone receptor-mediated PEPCK gene transcription in thyroid hormone treated human HepG2 cells by RT-PCR analysis; format: cell-based
[3] = molecular target: T2, Thyroid hormone receptor alpha (Homo sapiens, UniProt P10827); experiment: Inhibition of TRalpha-LBD (unknown origin) interaction to texas red-labeled SRC2-2 peptide by fluorescence polarization assay
T2 sequence (P10827 whole entry): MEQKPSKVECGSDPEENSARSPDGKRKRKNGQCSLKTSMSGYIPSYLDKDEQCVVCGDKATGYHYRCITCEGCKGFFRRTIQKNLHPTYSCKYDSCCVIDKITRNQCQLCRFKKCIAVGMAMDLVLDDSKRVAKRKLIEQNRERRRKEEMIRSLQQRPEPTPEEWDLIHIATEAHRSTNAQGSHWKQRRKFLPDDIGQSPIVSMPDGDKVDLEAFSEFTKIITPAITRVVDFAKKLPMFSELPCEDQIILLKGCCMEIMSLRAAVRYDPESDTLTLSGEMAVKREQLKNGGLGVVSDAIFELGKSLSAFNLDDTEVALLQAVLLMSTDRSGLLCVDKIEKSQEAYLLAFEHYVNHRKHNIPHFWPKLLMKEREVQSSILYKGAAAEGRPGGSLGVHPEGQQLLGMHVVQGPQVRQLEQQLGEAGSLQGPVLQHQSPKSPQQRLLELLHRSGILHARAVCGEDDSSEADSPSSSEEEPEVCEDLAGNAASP

[4] = tested on: HepG2; experiment: Cytotoxicity against human HepG2 cells assessed as ATP level after 72 hrs by CellTiter-Glo assay; format: cell-based; conditions: HepG2, 72 h
[5] = molecular target: T3, Vitamin D3 receptor (Homo sapiens, UniProt P11473); experiment: Inhibition of VDR (unknown origin) interaction to SRC2-3 peptide by fluorescence polarization assay
T3 sequence (P11473 whole entry): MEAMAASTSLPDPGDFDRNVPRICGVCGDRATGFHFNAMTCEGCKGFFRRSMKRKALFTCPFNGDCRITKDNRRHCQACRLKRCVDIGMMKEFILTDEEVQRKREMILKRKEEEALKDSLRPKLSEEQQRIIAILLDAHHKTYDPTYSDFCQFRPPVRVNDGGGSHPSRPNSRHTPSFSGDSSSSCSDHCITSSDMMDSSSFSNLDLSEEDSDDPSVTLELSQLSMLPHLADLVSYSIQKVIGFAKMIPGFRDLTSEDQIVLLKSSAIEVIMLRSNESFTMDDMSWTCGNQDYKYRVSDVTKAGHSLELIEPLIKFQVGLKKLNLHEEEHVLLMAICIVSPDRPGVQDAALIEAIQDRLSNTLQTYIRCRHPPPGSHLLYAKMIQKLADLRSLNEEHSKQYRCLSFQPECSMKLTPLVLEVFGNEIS

CS(=O)(=O)c1ccc(C(=O)NCC(=O)N(Cc2ccccc2)Cc2ccccc2)cc1[N+](=O)[O-]
pIC50 [1]: 5.44 | inhibition [2]: Dose-dependent effect | pIC50 [3]: 5.77 | pEC50 [4]: 4.92 | pIC50 [5]: < 4.22

CN(Cc1ccccc1)C(=O)CCCNC(=O)c1ccc(S(C)(=O)=O)c([N+](=O)[O-])c1
pIC50 [1]: < 4.22 | pIC50 [3]: < 4.22 | pEC50 [4]: < 4.57 | pIC50 [5]: < 4.22

CS(=O)(=O)c1ccc(C(=O)NCCCC(=O)N2CCN(c3ccc(C(F)(F)F)cc3)CC2)cc1[N+](=O)[O-]
pIC50 [1]: < 4.22 | pIC50 [3]: < 4.22 | pEC50 [4]: 4.89 | pIC50 [5]: 5.15

CN(Cc1cccc(F)c1)C(=O)C1CCN(C(=O)c2ccc(S(C)(=O)=O)c([N+](=O)[O-])c2)CC1
pIC50 [1]: < 4.22 | pIC50 [3]: < 4.22 | pEC50 [4]: < 4.57 | pIC50 [5]: < 4.22

CS(=O)(=O)c1ccc(C(=O)NCCC(=O)N2CCc3ccccc3C2)cc1[N+](=O)[O-]
pIC50 [1]: < 4.22 | pIC50 [3]: < 4.22 | pEC50 [4]: < 4.57 | pIC50 [5]: < 4.22

CS(=O)(=O)c1ccc(C(=O)N2CCC(C(=O)N3CCC(c4ccccc4)CC3)CC2)cc1[N+](=O)[O-]
pIC50 [1]: < 4.22 | pIC50 [3]: < 4.22 | pEC50 [4]: < 4.57 | pIC50 [5]: < 4.22

CS(=O)(=O)c1ccc(C(=O)NCCCC(=O)N2CCC(c3ccccc3)CC2)cc1[N+](=O)[O-]
pIC50 [1]: < 4.22 | pIC50 [3]: < 4.22 | pEC50 [4]: < 4.57 | pIC50 [5]: < 4.22

CS(=O)(=O)c1ccc(C(=O)NCCC(=O)N2CCCc3ccccc32)cc1[N+](=O)[O-]
pIC50 [1]: < 4.22 | pIC50 [3]: < 4.22 | pEC50 [4]: 4.98 | pIC50 [5]: < 4.22

CS(=O)(=O)c1ccc(C(=O)NCCCC(=O)N2CCN(c3ccccc3)CC2)cc1[N+](=O)[O-]
pIC50 [1]: < 4.22 | pIC50 [3]: < 4.22 | pEC50 [4]: < 4.57 | pIC50 [5]: < 4.22

CCCN(C(=O)CN(C)C(=O)c1ccc(S(C)(=O)=O)c([N+](=O)[O-])c1)c1ccccc1
pIC50 [1]: < 4.22 | pIC50 [3]: < 4.22 | pEC50 [4]: < 4.57 | pIC50 [5]: < 4.22

CC1Cc2ccccc2N1C(=O)CCNC(=O)c1ccc(S(C)(=O)=O)c([N+](=O)[O-])c1 (stereo unspecified)
pIC50 [1]: < 4.22 | pIC50 [3]: < 4.22 | pEC50 [4]: < 4.57 | pIC50 [5]: 4.26

CS(=O)(=O)c1ccc(C(=O)NCCCC(=O)N2Cc3ccccc3C2)cc1[N+](=O)[O-]
pIC50 [1]: < 4.22 | pIC50 [3]: < 4.22 | pEC50 [4]: < 4.57 | pIC50 [5]: < 4.22

CN(Cc1ccccc1)C(=O)CNC(=O)c1ccc(S(C)(=O)=O)c([N+](=O)[O-])c1
pIC50 [1]: 4.41 | pIC50 [3]: < 4.22 | pEC50 [4]: < 4.57 | pIC50 [5]: < 4.22

CS(=O)(=O)c1ccc(C(=O)NCCCC(=O)N2CCN(c3ccc(F)cc3)CC2)cc1[N+](=O)[O-]
pIC50 [1]: < 4.22 | pIC50 [3]: < 4.22 | pEC50 [4]: < 4.57 | pIC50 [5]: 4.19

CN(Cc1cccc(F)c1)C(=O)CNC(=O)c1ccc(S(C)(=O)=O)c([N+](=O)[O-])c1
pIC50 [1]: < 4.22 | pIC50 [3]: < 4.22 | pEC50 [4]: < 4.57 | pIC50 [5]: < 4.22

CS(=O)(=O)c1ccc(C(=O)N2CCC(C(=O)NC34CC5CC(CC(C5)C3)C4)CC2)cc1[N+](=O)[O-]
pIC50 [1]: < 4.22 | pIC50 [3]: < 4.22 | pEC50 [4]: < 4.57 | pIC50 [5]: < 4.22

CN(Cc1ccccc1)C(=O)CCNC(=O)c1ccc(S(C)(=O)=O)c([N+](=O)[O-])c1
pIC50 [1]: < 4.22 | pIC50 [3]: < 4.22 | pEC50 [4]: < 4.57 | pIC50 [5]: < 4.22

CN(CC(=O)NC12CC3CC(CC(C3)C1)C2)C(=O)c1ccc(S(C)(=O)=O)c([N+](=O)[O-])c1
pIC50 [1]: < 4.22 | pIC50 [3]: < 4.22 | pEC50 [4]: < 4.57 | pIC50 [5]: < 4.22

CC1CCN(C(=O)CCCNC(=O)c2ccc(S(C)(=O)=O)c([N+](=O)[O-])c2)CC1
pIC50 [1]: < 4.22 | pIC50 [3]: < 4.22 | pEC50 [4]: < 4.57 | pIC50 [5]: < 4.22

CN(CC(=O)N1CCc2ccccc2C1)C(=O)c1ccc(S(C)(=O)=O)c([N+](=O)[O-])c1
pIC50 [1]: < 4.22 | pIC50 [3]: < 4.22 | pEC50 [4]: < 4.57 | pIC50 [5]: < 4.22

CCCN(C(=O)CCNC(=O)c1ccc(S(C)(=O)=O)c([N+](=O)[O-])c1)c1ccccc1
pIC50 [1]: 4.30 | pIC50 [3]: 4.49 | pEC50 [4]: < 4.57 | pIC50 [5]: 4.40

CN(Cc1ccccc1F)C(=O)C1CCN(C(=O)c2ccc(S(C)(=O)=O)c([N+](=O)[O-])c2)CC1
pIC50 [1]: < 4.22 | pIC50 [3]: < 4.22 | pEC50 [4]: < 4.57 | pIC50 [5]: < 4.22

CC(C)N(C(=O)CNC(=O)c1ccc(S(C)(=O)=O)c([N+](=O)[O-])c1)C(C)C
pIC50 [1]: < 4.22 | pIC50 [3]: < 4.22 | pEC50 [4]: < 4.57 | pIC50 [5]: < 4.22

CN1CCN(C(=O)C2CCN(C(=O)c3ccc(S(C)(=O)=O)c([N+](=O)[O-])c3)CC2)CC1
pIC50 [1]: < 4.22 | pIC50 [3]: < 4.22 | pEC50 [4]: < 4.57 | pIC50 [5]: < 4.22

CC1Cc2ccccc2N1C(=O)C1CCN(C(=O)c2ccc(S(C)(=O)=O)c([N+](=O)[O-])c2)CC1 (stereo unspecified)
pIC50 [1]: < 4.22 | pIC50 [3]: < 4.22 | pEC50 [4]: < 4.57 | pIC50 [5]: < 4.22

Cc1ccc(N2CCN(C(=O)C3CCN(C(=O)c4ccc(S(C)(=O)=O)c([N+](=O)[O-])c4)CC3)CC2)cc1
pIC50 [1]: < 4.22 | pIC50 [3]: < 4.22 | pEC50 [4]: < 4.57 | pIC50 [5]: < 4.22

CS(=O)(=O)c1ccc(C(=O)NCC(=O)N2CCN(c3ccccc3F)CC2)cc1[N+](=O)[O-]
pIC50 [1]: < 4.22 | pIC50 [3]: < 4.22 | pEC50 [4]: < 4.57 | pIC50 [5]: < 4.22

CS(=O)(=O)c1ccc(C(=O)N2CCC(C(=O)N(Cc3ccccc3)c3ccccc3)CC2)cc1[N+](=O)[O-]
pIC50 [1]: < 4.22 | pIC50 [3]: < 4.22 | pEC50 [4]: < 4.57 | pIC50 [5]: < 4.22

CS(=O)(=O)c1ccc(C(=O)NCC(=O)N2CCN(c3ccc(F)cc3)CC2)cc1[N+](=O)[O-]
pIC50 [1]: < 4.22 | pIC50 [3]: 4.24 | pEC50 [4]: 4.89 | pIC50 [5]: 4.29

CS(=O)(=O)c1ccc(C(=O)NCCCC(=O)N2CCc3ccccc3C2)cc1[N+](=O)[O-]
pIC50 [1]: < 4.22 | pIC50 [3]: < 4.22 | pEC50 [4]: < 4.57 | pIC50 [5]: < 4.22

CS(=O)(=O)c1ccc(C(=O)NCCCC(=O)N2CCN(c3ccccc3F)CC2)cc1[N+](=O)[O-]
pIC50 [1]: < 4.22 | pIC50 [3]: < 4.22 | pEC50 [4]: < 4.57 | pIC50 [5]: < 4.22

CN(Cc1ccccc1F)C(=O)CNC(=O)c1ccc(S(C)(=O)=O)c([N+](=O)[O-])c1
pIC50 [1]: 4.62 | pIC50 [3]: < 4.22 | pEC50 [4]: 4.94 | pIC50 [5]: < 4.22

Cc1ccc(N2CCN(C(=O)CCCNC(=O)c3ccc(S(C)(=O)=O)c([N+](=O)[O-])c3)CC2)cc1
pIC50 [1]: < 4.22 | pIC50 [3]: < 4.22 | pEC50 [4]: < 4.57 | pIC50 [5]: < 4.22

CS(=O)(=O)c1ccc(C(=O)NCC(=O)N2CCN(c3ccccc3)CC2)cc1[N+](=O)[O-]
pIC50 [1]: < 4.22 | pIC50 [3]: < 4.22 | pEC50 [4]: < 4.57 | pIC50 [5]: < 4.22

CC1Cc2ccccc2N1C(=O)CCCNC(=O)c1ccc(S(C)(=O)=O)c([N+](=O)[O-])c1 (stereo unspecified)
pIC50 [1]: < 4.22 | pIC50 [3]: < 4.22 | pEC50 [4]: < 4.57 | pIC50 [5]: < 4.22
